Like-named read-outs stand apart in the source and are kept apart here. Marks after values point to notes of the source that are not given here. A value given as a limit tells only on which side of the number the result lay.

The conditions of data set [1]: human, in vivo. As for the experimental part: All but 7 patients were given AZA.
Toxicity was measured essentially as described previously (Cuffari et al., supra; 1996a).

The nature of data set [2]: 6-MP metabolite levels by gender and age in pediatric IBD patients (Example III). In kind it is in vivo, human. The following applies: for 6-MMP level / 6-TG level: TPMT wild type. As for the experimental part: These patients were wild type for TPMT. Patients were assessed based on gender and age as it relates to puberty. Puberty is established at 12 years of age in girls and 14 years of age in boys.

For data set [3] the following is noted: erythrocytes.
From the text: The 93 patients were pediatric patients, with 80 diagnosed as having CD, 8 diagnosed as having UC, and 5 diagnosed as having indeterminate colitis (CD or UC). All but 7 patients were given AZA. The dosages were converted to 6-MP equivalents using a factor of 2.07 as described in Example I. For some patients, two or more samples were obtained and analyzed. Response to 6-MP was defined by clinical remission (HBI<5, closed fistula) without corticosteroids. Disease activity and physical exam were ascertained at each clinic visit at which 6-MP metabolite levels were determined (clinical evaluation point). Hematological, pancreatic and hepatic laboratory parameters were evaluated simultaneously Erythrocyte 6-TG and 6-MMP concentrations (pmol/8×10^8 RBC) were measured by HPLC (Cuffari et al., supra, 1996a).
The number of samples corresponds to the number of different samples obtained from the 93 patients.
A short description of data set [4]: Responsiveness to 6-MP drug therapy by TPMT genotype in IBD patients (Example IV). In kind it is in vivo, human. As for the experimental part: The genotype of TPMT was determined in IBD patients that were responders and non responders. Genotyping of TPMT was measured essentially as described previously (Baccichet et al., Leuk. Res. 21:817-823 (1997); Zietkiewicz et al., Gene 205:161-171 (1997)).

Data set [5] in a line: 6-TG levels by TPMT genotype in IBD patients (Example IV). In kind it is in vivo, human. Conditions: for mean 6-TG: in pmol/8×10^8 RBC. As for the experimental part:
The genotype of TPMT was determined in IBD patients that were responders and non responders. Genotyping of TPMT was measured essentially as described previously (Baccichet et al., Leuk. Res. 21:817-823 (1997); Zietkiewicz et al., Gene 205:161-171 (1997)). […] All heterozygote patients were responders to 6-MP.

Data set [6] can be described thus: Erythrocyte 6-MP metabolite levels by reverse phase HPLC in IBD patients on 6-MP drug (Example I). Conditions: erythrocytes.
Method: Briefly, blood was sampled (n=89) prior to daily administration of 6-MP in 55 IBD patients (CD n=51, UC n=4) receiving 1-1.5 mg/kg/day over at least a 4 month period (≧4 mo.). When AZA was administered, a conversion factor of 2.07 was used to convert to the equivalent 6-MP dose. Twice as much AZA is administered relative to 6-MP to have an equivalent dose of 6-MP.
Erythrocyte 6-TG, 6-MMP and 6-MP thiobases were measured (pmol/8×10^8 RBC) using reverse phase HPLC. Briefly, blood samples were collected in EDTA (ethylene diamine tetraacetic acid) as anticoagulant. Cells were centrifuged and washed three times with an equal volume of 0.9% saline. Washed packed cells were stored at −70° C. until analysis was performed.
For acid hydrolysis, 500 μl deionized H2O, 50 μl thawed red blood cells, 40 μl of the appropriate standard or control, 500 μl 3.0 NH2SO4, and 300 μl 10 mM dithiothreitol (DTT) was added to an 8 ml glass screw cap tube. The capped tubes were placed in a heating block preheated to 100° C. and hydrolyzed. For 6-MMP, hydrolysis was carried out for 5 hours. For 6-MP and 6-TG, hydrolysis was carried out for 1 hour. After the incubation, tubes were cooled in a room temperature water bath. To tubes hydrolyzed for 5 hours (6-MMP), 400 μl 3.4 N NaOH and 1.0 ml 2 M Tris buffer, pH 9.0 was added. To tubes hydrolyzed for 1 hour (6-MP/6-TG), 450 μl 3.4 N NaOH and 500 μl 2M Tris base was added. A volume of 4 ml 0.03% phenylmercuric chloride in methylene chloride was added to each tube. The tubes were capped and lightly agitated on a bi-directional rotator (15 min for 6-MMP and 30 min for 6-MP/6-TG). The contents were transferred to a 15 ml polypropylene centrifuge tube and centrifuged at 3500 rpm for 3 min at 10° C. The aqueous phase (top layer) was discarded, and 3.0 ml of the organic phase (bottom layer) was transferred to a clean 15 ml polypropylene centrifuge tube. The analytes in the organic phase were back extracted by adding 225 μl 0.1 N HCl and lightly mixing on an orbital rotator for 5 min. Following vortexing for 30 seconds, the tubes were centrifuged at 3500 rpm for 3 min at 10° C.
For 6-MMP analysis, 50 μl analyte was analyzed on a C18 reverse phase column with the mobile phase containing 1 mM DTT, 2.078% triethylamine and 4% methanol, adjusted to pH 3.2 with concentrated H3PO4. For 6-MP and 6-TG analysis, 100 μl analyte was analyzed on a C18 reverse phase column using 0.1 M H3PO4 and 1 mM DTT in H2O as the mobile phase.
Clinical remission was defined as a Harvey Bradshaw Index <5 in those patients off corticosteroids or weaned to a level of prednisone ≦0.4 mg/kg/od (administered every other day). Treatment failures were defined as non-responders (HBI>5 or steroid dependence) or cessation of 6-MP due to side effects.

With `CSc1ncnc2nc[nH]c12` [6-MMP, 6-methyl-mercaptopurine], the “6-MMP level associated with hepatotoxicity” value in data set [1] was “greater than 7000 pmol 6-MMP/8×10^8”. The “Ratio 6-MMP/6-TG” value in data set [2] (Boys (0-14 y)) is 17.24; in data set [2] (Boys (>14 y), p<0.001), 6.78*; in data set [2] (Girls (0-12 y)), 18.52; in data set [2] (Girls (>12 y)), 12.55. Moreover, the 6-MMP level in data set [2] (Boys (0-14 y), 51 observed) is 3681.6 pmol per 8 × 10^8 RBC; in data set [2] (Boys (>14 y), 104 observed, p<0.001), 1662.3* pmol per 8 × 10^8 RBC; in data set [2] (Girls (0-12 y), 39 observed), 3447.0 pmol per 8 × 10^8 RBC; in data set [2] (Girls (>12 y), 116 observed), 3304.5 pmol per 8 × 10^8 RBC. The “Median 6-MMP” value in data set [3] (Relapse, n=72 samples) is recorded as 1602 pmol/8×10^8 RBC; in data set [3] (Remission, n=106 samples), 2600 pmol/8×10^8 RBC.

Take `Sc1ncnc2nc[nH]c12` [6-MP, 6-Mercaptopurine]: the “response of TPMT heterozygotes to 6-MP” value in data set [4] (8 of 93 patients heterozygotes) is on record as “All 8 heterozygotes responded”. In addition, the Non. responder in data set [4] (TPMT Heterozygote IBD patients) is 0%; in data set [4] (TPMT Normal IBD patients), 45%. Besides, the Responder in data set [4] (TPMT Heterozygote IBD patients) came to 100%; in data set [4] (TPMT Normal IBD patients), 55%.

On to `Nc1nc2nc[nH]c2c(=S)[nH]1` [6-TG, 6-thioguanine], for which the 6-TG level in data set [2] (Boys (0-14 y), 51 observed) was determined as 235.0 pmol per 8 × 10^8 RBC; in data set [2] (Boys (>14 y), 104 observed), 222.5 pmol per 8 × 10^8 RBC; in data set [2] (Girls (0-12 y), 39 observed), 182.2 pmol per 8 × 10^8 RBC; in data set [2] (Girls (>12 y), 116 observed), 217.2 pmol per 8 × 10^8 RBC. For the same compound, the “mean 6-TG” value in data set [5] (TPMT Heterozygote patients, p less than 0.0001) was 589*; in data set [5] (TPMT Normal patients), 247. For the same compound, in data set [5] (all 8 heterozygotes), the “6-TG levels of TPMT heterozygotes” value is listed as > 230 pmol/8×10^8 RBC. Further, the “median 6-TG” value in data set [3] (Relapse, n=72 samples) is given as 197 pmol/8×10^8 RBC; in data set [3] (Remission, n=106 samples, p<0.0001), 309* pmol/8×10^8 RBC; in data set [6] (Hematologic toxicity group, n=6, p<0.03), 414+ pmol per 8×10^8 RBC; in data set [6] (Hepatic toxicity group, n=7), 258 pmol per 8×10^8 RBC; in data set [6] (Non-responders, n=31, p<0.001), 184* pmol per 8×10^8 RBC; in data set [6] (Pancreatic toxicity group, n=6) it was 211 pmol per 8×10^8 RBC. Also, the “median 6-TG” value in data set [6] (Responders, n=58 samples, 6-MP 1-1.5 mg/kg/day ≥4 mo.) is 295 pmol per 8×10^8 RBC.
